Assays:
[1] = TA 2005 stability in presence of sulphuric acid, upright Teflon-coated cans at 40° C.; format: physicochemical; settings: 0.075 M sulphuric acid in a concentration of 0.0018 to 0.0054% w/w
Experimental: A formulation of 8-hydroxy-5-[(1R)-1-hydroxy-2-[[(1R)-2-(4-methoxyphenyl)-1-methyl ethyl]amino]ethyl]-2(1H)-quinolinone hydrochloride (TA 2005) for delivering a nominal dose of 1 μg of active ingredient per actuation, was prepared with the following formulation: […]
The formulation (120 actuations/canister, overage of 30 actuations) was filled in aluminium canisters having the internal surface coated with Teflon and fitted with a metering valve having a 63 μl metering chamber.
A stability study was carried out by storing the formulation in upright cans at 40° C. The percent recovery of the active ingredient after one month of storage under these conditions is reported in the following: […]

[2] = Stability study of budesonide HFA solution formulation in anodized aluminium cans at 40° C. and 75% relative humidity; format: physicochemical
Experimental: A formulation for delivering a nominal dose of 200 μg of budesonide per actuation was prepared and filled in anodized aluminium canisters fitted with a metering valve having a 50 μl metering chamber.
A stability study was carried out by storing the formulation in upright (Up) and inverted (Inv) cans at 40° C. and 75% relative humidity. After three months of storage under these conditions the percent recovery of the active ingredient was very good. At the same time, the addition of small quantities of phosphoric acid appears to reduce the main oxidation degradation product, which is the 21-aldehyde content of the budesonide formulation.

SMILES | chemical stability [1] | effect of small quantities of phosphoric acid on 21-aldehyde content (main oxidation degradation product) [2]
COc1ccc(C[C@@H](C)NC[C@H](O)c2ccc(O)c3[nH]c(=O)ccc23)cc1.Cl [TA 2005, 8-hydroxy-5-[(1R)-1-hydroxy-2-[[(1R)-2-(4-methoxyphenyl)-1-methylethyl]amino]ethyl]-2(1H)-quinolinone hydrochloride] | improved | 
CCCC1O[C@@H]2C[C@H]3[C@@H]4CCC5=CC(=O)C=C[C@]5(C)[C@H]4[C@@H](O)C[C@]3(C)[C@]2(C(=O)CO)O1 (some centres unmarked) [Budesonide, budesonide] |  | reduce
